What all share (assay type): cell-based, human
For data set [1], the system named is DU145 cells. The data set is described as follows: MTS viability assay, DU145 prostate cancer cells. The conditions noted are these: Table 6, 48 h. The essentials: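 DU145 cells in DMEM + 10% FBS plated 24 h, then treated with compounds (0–30 μM) for 48 h. Viability by MTS (20% vol/vol, 1–4 h) read at OD490 against cell-free blanks; mean±SD of 6 determinations.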

For data set [2], the system named is JIMT-1 cells. The data set is described as follows: MTS viability assay, JIMT-1 breast cancer cells. The conditions noted are these: Table 6, 48 h. The essentials:
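After 24 h plating in DMEM with 10% FBS, JIMT-1 cells were exposed to compound (0–30 μM) for 48 h. Viability was read as OD490 after 1–4 h with MTS reagent (20% vol/vol), blanked against cell-free wells. Values are mean±SD of 6 independent determinations.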

The subject of data set [3] is MiaPaCa2 cells. The data set is described as follows: MTS viability assay, MiaPaCa2 pancreas cancer cells. As to conditions: Table 6, 48 h. An outline of the steps:
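Cells in DMEM with 10% FBS and 2.5% horse serum were plated 24 h, then exposed to compounds (0-30 μM) for 48 h. MTS reagent (20% vol/vol) added for 1-4 h, OD490 read against cell-free blanks; mean±SD of 6 independent determinations.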

In data set [4] the test system is PC3 cells. Put plainly: MTS viability assay, PC3 prostate cancer cells. The conditions noted are these: Table 6, 48 h, MTS. An outline of the steps:
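PC3 cells in F12K with 10% FBS were exposed to compounds (0-30 μM) for 48 h, starting 24 h after seeding. Viability was read by MTS reagent (20% vol/vol, 1-4 h) at OD490, blanked against cell-free wells; mean±SD of 6 independent determinations.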

In data set [5] the test system is BT-474, JIMT-1, MDA-MB-231 (breast), DU145, PC3 (prostate), MiaPaCa2 (pancreas). The data set is described as follows: MTS viability, panel of epithelial cancer cell lines (ranges over the cell lines). The protocol: To determine the effect of compounds 1-10 on the viability of the epithelial cancer cell lines, exponentially growing cells, BT-474, JIMT-1, MDA-MB-231 (breast), DU145, PC3 (prostate), MiaPaCa2 (pancreas) were incubated with varying concentrations of 1-8 (0-30 μM) for 48 h followed by viability assays with the MTS reagent.
The effects of the GAELs on the viability of the various epithelial cancer cell lines was determined as previously described. Briefly, equal numbers of the cells were dispersed into 96-well plates. After 24 h, the cells were incubated with the compounds (0-30 μM) for 48 h. At the end of the incubation, MTS reagent (20% vol/vol) was added and the plates were incubated for 1-4 h. The OD490 was read with a plate reader. Wells with media but no cells were treated in similar fashion and the values utilized as blank. The results represent the mean±standard deviation of 6 independent determinations.

Molecules are shown by their SMILES.

For the compound `CCCCCCCCCCCCCCCCOC[C@H](COC1O[C@H](CNCCCCCCCCCCCCN)[C@@H](O)[C@H](O)[C@H]1N)OC` (stereo partly shown) [Compound 73, 1-O-Hexadecyl-2-O-methyl-3-O-[6′-N-(12-aminododecyl)-2′,6′-diamino-2′,6′-dideoxy-glucopyranoside]-sn-glycerol], the CC50 is 3.8 µM in data set [1] (read-out: DU145 CC50); 3.4 µM in data set [2] (read-out: JIMT1 CC50); 4 µM in data set [3] (read-out: MiaPaCa2 CC50); 2 µM in data set [4] (read-out: PC3 CC50); 1.5 to 4 µM in data set [5] (range over the cell lines tested, 48 h, read-out: CC50 values, range depending on the cell line). Besides, the CC90 in data set [1] (read-out: DU145 CC90) turned out to be 4.8 µM; in data set [2] (read-out: JIMT1 CC90) it was 4.6 µM; in data set [3] (read-out: MiaPaCa2 CC90) it was 6.6 µM; in data set [4] (read-out: PC3 CC90), 3.2 µM. Besides, the “cytotoxicity against all cell lines examined” value in data set [5] (tricationic GAELs, FIG. 2O, Table 6) is “cytotoxic”.
